Results on six compounds are retold here after patent US7504412B2, “Imidazopyridine derivatives” (Banyu Pharmaceuticals, Co., Ltd., priority 2003, dated 2009).

SMILES strings stand for the structures. Where a name gives a salt, the structure may show the parent alone.

T1 sequence (Q99705 whole entry): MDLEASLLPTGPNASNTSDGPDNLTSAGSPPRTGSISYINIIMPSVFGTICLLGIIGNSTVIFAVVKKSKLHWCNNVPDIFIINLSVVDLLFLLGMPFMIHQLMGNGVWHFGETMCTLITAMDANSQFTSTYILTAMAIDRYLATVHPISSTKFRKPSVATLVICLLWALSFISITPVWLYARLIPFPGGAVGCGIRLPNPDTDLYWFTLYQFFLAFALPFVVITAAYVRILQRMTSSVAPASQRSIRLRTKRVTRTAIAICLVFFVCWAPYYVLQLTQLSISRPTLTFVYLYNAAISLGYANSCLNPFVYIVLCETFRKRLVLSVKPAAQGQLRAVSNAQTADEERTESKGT

The first experiment concerns MCH-induced feeding behavior. The experiment in a line: Antagonism test to MCH-induced feeding behavior. It counts as in vivo, rat. As to conditions: male SD rats satiated with high fat diet; 10 or 30 mg/kg oral, one hour before MCH 5 μg/head into third ventricle. Here is the method: Ketamine-xylazine anesthetized (74 and 11 mg/kg single intraperitoneal administration) male SD rats (9-12 weeks old) were inserted with chronic guide cannule (26 gauge) into their third ventricle as fixed at a set cerebral location with dental resin. The position of the front end of the guide cannula was set to be 2.2 mm behind the bregma on median line and at a depth of 8 mm from the cranial surface. After two weeks' recovery term, the rats were fed with high fat diet for about 4 hours to satiation. Thereafter a needle (33 gauge) which was connected to a microsyringe was inserted into the guide cannula and through which melanin concentrating hormone (MCH, 5 μg/1 μL/head, as dissolved in artificial liquor cerebrospinalis) was administered into each rat's third ventricle. The compound of Example 17 (10 or 30 mg/kg) as suspended in 0.5% aqueous methylcellulose solution was orally administered to the rats an hour before the MCH administration. The rats were successively fed with high fat diet, and their feed intake during the two hours following the MCH administration was measured.
In this test, the feed intake in the case where MCH and artificial liquor cerebrospinalis (aCSF) alone was administered in place of the compound of the present invention was used as the reference.
For the compound `Cc1c(C2CC2)nc2ccc(NC(=O)c3ccc(-c4ccccn4)cc3)cn12` [Example 17, N-(2-cyclopropyl-3-methylimidazo[1,2-a]pyridin-6-yl)-4-(2-pyridyl)benzamide hydrochloride], the “feed intake during the two hours following MCH administration” value is given as “dose-dependently inhibited increase in the amount of feed intake induced by the MCH”.

Another experiment has as its target T1, human MCH-1R (Homo sapiens, UniProt Q99705).
T1 construct: expressed in transfected cells; host or cells: CHO-K1 (American Type Culture Collection), membrane samples
Kind of experiment: MCH binding inhibition test. To be noted: membrane samples from MCH-1R expression CHO-K1 cells, 50 pM [125I]MCH, 25° C., one hour; read-out: IC50 (50% inhibition concentration to specific [125I]MCH binding). How it is done:
A human MCH-1R encoding cDNA sequence [FEBS Letters, 398, 253 (1996); Biochimica et Biophisica Acta, 1401, 216 (1998)] was cloned to plasmid vector pEF/mic/cyto (Invitrogen Corporation). The obtained expression vector was transfected to a host cell CHO-K1 (American Type Culture Collection) using lipofectamine plus reagent (Life Technology Inc.) to provide MCH-1R expression cells.
Membrane samples prepared from the MCH-1R expression cells were incubated with each test compound and 50 pM of [^125I]MCH (NEN Co.), in an assay buffer (50 mM Tris buffer comprising 10 mM magnesium chloride, 2 mM ethylenediamine tetraacetate, 0.01% bacitracin and 0.2% bovine serum albumin; pH 7.4) at 25° C. for an hour, followed by filtration through Glass Filter GF/C (Wattman Co.). After washing the glass filter with 50 mM Tris buffer (pH7.4) comprising 10 mM magnesium chloride, 2 mM ethylenediamine tetraacetate and 0.04% Tween-20, radio activity on the glass filter was measured. Non-specific binding was measured in the presence of 1 μM human MCH and 50% inhibition concentration (IC50 value) of each test compound to specific [^125I] MCH binding was determined.
Consider `CC(C)c1cn2cc(NC(=O)c3ccc(-c4ccc(F)cc4)cc3)ccc2n1` [Example 2, 4′-Fluoro-N-(2-isopropylimidazo[1,2-a]pyridin-6-yl)[1,1′-biphenyl]-4-carboxamide], for which the IC50 was 3.1 nM.
On the same count and under the same terms, as for `Cc1c(C2CC2)nc2ccc(NC(=O)c3ccc(-c4ccccn4)cc3)cn12` [Example 17, N-(2-cyclopropyl-3-methylimidazo[1,2-a]pyridin-6-yl)-4-(2-pyridyl)benzamide hydrochloride], the figure is 3.3 nM; as for `O=C(Nc1ccc2nc(C3CC3)c(CO)n2c1)c1ccc(-c2ccc(C(F)(F)F)cc2)cc1` [Example 36, N-[2-cyclopropyl-3-(hydroxymethyl)imidazo[1,2-a]pyridin-6-yl]-4′-(trifluoromethyl)[1,1′-biphenyl]-4-carboxamide], 10.5 nM; as for `Cc1c(C2CC2)nc2ccc(NC(=O)c3ccc(-c4ccc(F)cc4)cn3)cn12` [Example 14, N-(2-cyclopropyl-3-methylimidazo[1,2-a]pyridin-6-yl)-5-(4-fluorophenyl)-2-pyridinecarboxamide hydrochloride], 2 nM.
The same measure, in the same setting: the value for `Cc1c(C2CC2)nc2ccc(NC(=O)CCc3ccc(C(F)(F)F)cc3)cn12` [Example 18, N-(2-cyclopropyl-3-methylimidazo[1,2-a]pyridin-6-yl)-3-[4-(trifluoromethyl)phenyl]propanamide] was 4.3 nM; that for `Cc1c(C(C)(C)O)nc2ccc(NC(=O)c3ccc(-c4ccc(C(F)(F)F)cn4)cc3)cn12` [Example 32, N-[2-(1-hydroxy-1-methylethyl)-3-methylimidazo[1,2-a]-pyridin-6-yl]-4-[5-(trifluoromethyl)-2-pyridyl]benzamide] was 9.5 nM.
